Legend:
[1] = Solubility of antioxidants in 2-ethylhexanol; conditions: 25° C., amount varied from 100 ppm to 1,000 ppm
Method: The solubility of different antioxidants in oxo alcohol was analyzed. Alkanox™ 240, Lowinox™ CA22, and Anox™ 1315, were added to 2-ethylhexanol.

[2] = Stability: aldehyde impurity levels in 2-ethylhexanol admixed with antioxidant, heated at 50° C., analysed by GC; assay type: physicochemical; conditions: 10 ppm in 2-ethylhexanol, heated conditions (50° C.)
Method: Experimental trials were conducted in accordance with the present method. The effects of antioxidants on aldehyde impurity levels in 2-ethlyhexanol were analyzed. A fixed volume of 2-ethylhexanol was admixed with an antioxidant and was heated at 50° C. for three weeks in a hot metal block. The 50° C. temperature mimicked harsh weather conditions during which accelerated autoxidation can occur. At the end of each week (intervals of 168 hours), a sample was drawn and analyzed using gas chromatography (GC). A control sample (where antioxidant was not added) was also analyzed. Lowinox™ CA22 was further examined at lower concentrations of 10 ppm and 20 ppm.

[3] = Color analysis of plasticizers made from 2-ethylhexanol with antioxidant (Platinum-Cobalt Scale, ASTM D1209); assay type: physicochemical
Method: The oxo alcohol 2-ethylhexanol was mixed with different antioxidants (Anox™ 1315 and Lowinox™ CA22). Plasticizers dioctyl phthalate (DOP) and/or trioctyl trimellitate (TOTM) were then synthesized using the different 2-ethylhexanol mixtures. The DOP plasticizer was produced using a 2-ethylhexanol to phthalic acid molar ratio of 2.35 to 1. The TOTM plasticizer was produced using a 2-ethylhexanol to […] molar ratio of 3.5 to 1. The plasticizers were synthesized a temperature of 210° C. for a period of 4 hours. Phosphorous-based antioxidants, nitrogen-based antioxidants, and sulfur-based antioxidants were all found to be problematic. For example, it was observed during downstream application that when phosphorus-based antioxidants were used, initially poor solubility in the oxo alcohol was a problem and then corrosion of the reactor. Not to be limited by theory, it is believed that during the production of the plasticizers, the phosphorus-based antioxidant would be hydrolyzed, producing phosphorus acid, which corroded the reactor. Nitrogen-based antioxidants and sulfur-based antioxidants, on the other hand, adversely affected the color of the resultant plasticizers.
Color analysis of the resulting plasticizers was conducted using the Platinum-Cobalt Scale in accordance with ASTM D1209, as updated in 2011. The best in class specification for TOTM plasticizer is a score of 30 and for the DOP plasticizer is a score of 25 on the Platinum-Cobalt scale. As is shown in Table 3, trioctyl trimellitate and dioctyl phthalate were produced using 2-ethylhexanol comprising the specified antioxidant.

[4] = 2-ethylhexanol with 10 ppm antioxidant

Row | SMILES | Solubility in 2-ethylhexanol [1] | Time for which aldehyde growth was stopped [2] | Platinum-Cobalt score of resulting DOP [3, 4] | Platinum-Cobalt score of resulting TOTM [3, 4] | Platinum-Cobalt score of resulting TOTM ([3]; 2-ethylhexanol with 50 ppm antioxidant)
1 | CC(C)(C)c1ccc(OP(Oc2ccc(C(C)(C)C)cc2C(C)(C)C)Oc2ccc(C(C)(C)C)cc2C(C)(C)C)c(C(C)(C)C)c1 [Alkanox™ 240, phenol, 2,4-bis(1,1-dimetylethyl)-phosphite (3:1)] | not soluble | – | – | – | –
2 | Cc1cc(O)c(C(C)(C)C)cc1C(C)CC(c1cc(C(C)(C)C)c(O)cc1C)c1cc(C(C)(C)C)c(O)cc1C (stereo not drawn) [Lowinox™ CA22, 1,1,3-tris(2′-methyl-4′-hydroxy-5′-t-butylphenyl)butane] | soluble | over 3 weeks | 20 | 28 | 30

— patent publication US20210323901A1, “METHOD OF STORING AND/OR TRANSPORTING OXO ALCOHOL” (SABIC GLOBAL TECHNOLOGIES B.V., priority 2018, published 2021)
